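Method: 48-hour compound exposure of cells in 96-well plates, five concentrations, linear interpolation of endpoints. TGI marks complete inhibition of growth.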

The results in this text go back to PubChem BioAssay (NCI).

Among the test systems are 786-0 renal; A498 renal; ACHN renal; BT-549 breast; HOP-62 NSCLC; HS 578T breast; HT29 colon; MDA-N; RXF 393 renal; SF-295 CNS; SF-539 CNS.
What all share (test): NCI anticancer screen, dose series, 48 h

For `CCOC(=O)c1nc2ccc(C(F)(F)F)cc2nc1Oc1cc(OC)cc(OC)c1`, the TGI in the test on 786-0 renal was over 100 µM; with A498 renal it was over 100 µM; in the test with ACHN renal it was over 100 µM; in the test on BT-549 breast it was over 100 µM; with HOP-62 NSCLC, over 100 µM; in the test with HS 578T breast, 64.2 µM. In addition, the TGI in the test on HT29 colon, in the test with MDA-N, in the test on RXF 393 renal, with SF-295 CNS and with SF-539 CNS was over 100 µM in each case.
In the case of `COC(=O)C(Cc1ccccc1)NP(=O)(O)OCC1OC(n2cc(F)c(=O)[nH]c2=O)CC1O` (configuration not stated), the TGI with 786-0 renal, in the test on A498 renal, in the test with ACHN renal, with BT-549 breast, in the test on HOP-62 NSCLC and in the test with HS 578T breast was over 100 µM each time. Also, the TGI with HT29 colon is over 100 µM; in the test on MDA-N, over 100 µM; in the test on RXF 393 renal, over 100 µM; in the test with SF-295 CNS, over 100 µM; in the test with SF-539 CNS it was 63.9 µM.
For the compound `O=C(Nc1nc2ccccc2s1)c1cc([N+](=O)[O-])ccc1Cl`, the TGI is over 58.6 µM in the test with 786-0 renal; over 100 µM in the test with A498 renal; over 100 µM in the test with ACHN renal; over 30.9 µM in the test with BT-549 breast; over 100 µM with HOP-62 NSCLC; 15.7 µM in the test with HS 578T breast. Besides, the TGI was 65.9 µM with HT29 colon; over 31.6 µM in the test with MDA-N; 15.9 µM with RXF 393 renal; over 100 µM in the test on SF-295 CNS; 28.5 µM in the test with SF-539 CNS.
As for `O=C(O)c1nc(-c2ccccc2)[nH]c1C(=O)O`, the TGI in the test with 786-0 renal is 22.5 µM; in the test on A498 renal, 29.1 µM; in the test with ACHN renal it was 30.7 µM; in the test with BT-549 breast, 35.9 µM; in the test on HOP-62 NSCLC it was 32.6 µM; with HS 578T breast, over 61.2 µM. The TGI in the test with HT29 colon is 20.2 µM; with MDA-N it was 24.4 µM; with RXF 393 renal it was 26.5 µM; with SF-295 CNS it was 30.9 µM; in the test on SF-539 CNS, 22.7 µM.
Turning to `COC(=O)c1c(OC(C)=O)ccc2c1c1c(n2C)C(=O)c2ccccc2C1=O`, the TGI was over 100 µM with 786-0 renal; 41.7 µM with A498 renal; 51.5 µM in the test with ACHN renal; 57 µM in the test with BT-549 breast; 67.4 µM with HOP-62 NSCLC; 39.1 µM in the test with HS 578T breast. Moreover, the TGI in the test on HT29 colon was over 100 µM; with MDA-N, over 100 µM; with RXF 393 renal it was over 100 µM; in the test with SF-295 CNS, 67.8 µM; in the test on SF-539 CNS, 47 µM.
Turning to `COC(=O)c1c(O)ccc2c1c1c(n2Cc2cccc(C)c2)C(=O)c2ccccc2C1=O`, the TGI in the test with 786-0 renal turned out to be 25.8 µM; in the test with A498 renal it was 33.9 µM; in the test with ACHN renal, 24.5 µM; with BT-549 breast, 29 µM; with HOP-62 NSCLC, 31.3 µM; with HS 578T breast it was 34.9 µM. The TGI with HT29 colon stood at 14 µM; in the test with MDA-N, 33.7 µM; with RXF 393 renal, 26.1 µM; with SF-295 CNS, 30.2 µM; in the test on SF-539 CNS, 28.2 µM.
Turning to `CSc1n[nH]c(N)c1C(=O)Nc1ccc(C)cc1`, the TGI in the test on 786-0 renal was over 100 µM; in the test on A498 renal it was 82.7 µM; with ACHN renal, over 100 µM; with BT-549 breast it was over 100 µM; with HOP-62 NSCLC it was over 100 µM; with HS 578T breast, over 100 µM. Also, the TGI in the test with HT29 colon, with MDA-N, in the test with RXF 393 renal, in the test on SF-295 CNS and with SF-539 CNS was over 100 µM in each case.
Consider `COc1ccc2nc3cc([N+](=O)[O-])ccc3c(Nc3ccc(S(=O)(=O)NC(C)=O)cc3)c2c1`, for which the TGI in the test with 786-0 renal, in the test on A498 renal, with ACHN renal, with BT-549 breast, with HOP-62 NSCLC and in the test with HS 578T breast was over 100 µM throughout. Also, the TGI in the test with HT29 colon, with MDA-N, with RXF 393 renal, with SF-295 CNS and with SF-539 CNS was over 100 µM in each case.
As to `COc1ccccc1NC(=O)CC(=O)N1N=C(C)C(N=Nc2ccc(C(=O)O)cc2)C1=O` (configuration not stated), the TGI in the test on 786-0 renal, in the test on A498 renal, in the test on ACHN renal, in the test on BT-549 breast, in the test with HOP-62 NSCLC and in the test on HS 578T breast was over 100 µM each time. The TGI in the test with HT29 colon, in the test with MDA-N, in the test on RXF 393 renal, with SF-295 CNS and in the test on SF-539 CNS was over 100 µM each time.
For `O=c1[nH]nc(-c2ccccc2)n1/N=C/c1cccnc1`, the TGI in the test with 786-0 renal, in the test on A498 renal, with ACHN renal, with BT-549 breast, with HOP-62 NSCLC and in the test on HS 578T breast was over 100 µM throughout. The TGI with HT29 colon, in the test with MDA-N, with RXF 393 renal, in the test with SF-295 CNS and in the test on SF-539 CNS was over 100 µM throughout.
For the compound `CC[N+]1(C)CCC(O)(c2ccc(Cl)c(Cl)c2)C(C(=O)c2ccc(Cl)c(Cl)c2)C1` (configuration not stated), the TGI in the test with 786-0 renal, in the test on A498 renal, with ACHN renal, with BT-549 breast, with HOP-62 NSCLC and in the test with HS 578T breast was over 10 µM in each case. In addition, the TGI in the test with HT29 colon, with MDA-N, in the test on RXF 393 renal, in the test on SF-295 CNS and with SF-539 CNS was over 10 µM each time.
With `O=c1ccn(CC2(CO)CC(Cc3ccccc3)C2)c(=O)[nH]1` (configuration not stated), the TGI in the test with 786-0 renal, with A498 renal, with ACHN renal, in the test with BT-549 breast, in the test on HOP-62 NSCLC and with HS 578T breast was over 100 µM in each case. In addition, the TGI in the test with HT29 colon, in the test on MDA-N, with RXF 393 renal, with SF-295 CNS and in the test on SF-539 CNS was over 100 µM each time.
